Legend:
N1Neu = N1Neu sialidase inhibition screen; assay type: biochemical; conditions: 2 mM Zanamivir; 1500 ug Zizyphus extract; 10 minute time point
Procedure: An initial screen of N1Neu inhibition using a variety of compounds and the commercially available sialidase (neuraminidase) inhibitor Zanamivir (which is sold in the pharmaceutical preparation “Relenza™” as a treatment for flu) was performed.
Sialidase assays were performed, reactions contained 0.1 mM MUNANA, pH 7.4 50 mM Tris, 5 mM CaCl2), 200 mM NaCl, plant extract or the control sialidase inhibitor Zanamivir at the concentrations indicated, or no putative inhibitor. N1Neu was present at 0.025 μg/ml in reactions. 50 μl of these reactions were quenched using 100 μl of 100 mM sodium carbonate buffer, pH 10.5, at 5 minutes and 10 minutes. The 10 minute time point was used to assess sialidase activity. Data shown represent the mean of one experiment, where each condition was repeated in triplicate. MU present in quenched reactions was quantified using TECAN M200 Infinite microplate reader at excitation 340 nm emission 430 nm, and expressed as the percentage of sialidase activity (MU fluorescence) relative to the no inhibitor condition.

[1] = tested on: sialidase of T. forsythia homogenate; test: Sialidase activity of homogenate of T. forsythia; assay type: biochemical, Tannerella forsythia; conditions: 2 mM Zanamivir; 1500 μg/ml Zizyphus
Procedure: (§1) MU release can be used to quantify sialidase activity.
(§2) Whole bacteria or purified sialidases were exposed to MUNANA, in the presence or absence of compound 1 (Example 3) or Zizyphus fruit 50% aqueous ethanol extract containing 1% of the N-methyl-prolines.
(§3) […] Reactions were stopped at 30 seconds and 60 seconds via addition of ph 10.5 60 mM sodium carbonate buffer. Release of fluorogenic MU was quantified by measuring fluorescence emission at 450 nm, excitation 350 nm. Percentage sialidase activity was expressed as the change in fluorescence between 30 seconds and 60 seconds compared to that of a reaction without inhibitor. Reactions were carried out in triplicate.

[2] = tested on: sialidase of P. gingivalis homogenate; test: Sialidase activity of homogenate of P. gingivalis; assay type: biochemical, Porphyromonas gingivalis; conditions: 2 mM Zanamivir; 1500 μg/ml Zizyphus
Procedure: as §1, §2, §3

For CC(=O)N[C@H]1[C@H]([C@H](O)[C@H](O)CO)OC(C(=O)O)=C[C@@H]1N=C(N)N [Zanamivir], the “% inhibition” value (N1Neu) was 100%, the “% inhibition” value [1] was 22% and the “% inhibition” value [2] was 51%.

From patent publication US20260078089A1, “BIOACTIVE PHYTOCHEMICALS IN ZIZYPHUS AND GUARANA” (Phytoquest Limited, priority 2018, published 2026)
